We go through 3 molecules from patent publication US8846653B2, “Delta-tocotrienol treatment and prevention of pancreatic cancer” (University of South Florida, priority 2006, dated 2014).

Common to all, as to assay type: cell-based, human
One test relates to MIA PaCa2 cells. As to the kind of experiment: MTT cell viability, δ-tocotrienol, fluorouracil or combination. Here is the method: FIG. 39 is a graph MIA PaCa2 pancreatic cancer cells (3×10^3) treated with indicated concentrations of delta-tocotrienol, fluorouracil (5FU), or a combination of the indicated delta-tocotrienol and 5FU.
The MiaPaCa 2 cells were plated as above into 96 well plates and treated the following day with increasing concentrations of δ-tocotrienol, fluorouracil (5FU), or a combination of δ-tocotrienol and fluorouracil. The cells were collected and analyzed for cell viability using an MTT assay. […] MIA PaCa2 cells (3×10^3) were cultured as described in the Examples above, in 96-well plates and treated the following day with vehicle, δ-tocotrienol, fluorouracil, or a combination of δ-tocotrienol and fluorouracil.

A further test concerns MIA PaCa-2 cells. As to the kind of experiment: Trypan blue cell death, δ-tocotrienol, 5-FU or combination, 24 hours. The following applies: MIA PaCa-2, 50 μM each. Here is the method:
MIA PaCa-2 cells were treated vehicle or an anti-proliferative treatment comprising 50 μM δ-tocotrienol, 50 μM 5-FU, or 50 μM δ-tocotrienol and 50 μM 5-FU for 24 hours. Cells were harvested, fixed, permeablized and stained with trypan blue.

Test [1] has as its system MiaPaCa2 pancreatic cancer cells. The test can be described thus: Malignant transformation (Soft Agar) colony formation. To be noted: MiaPaCa2, 50 μM, vs vehicle. The method, then: FIG. 20 is a graph showing the effect of tocotrienols on pancreatic cancer malignant transformation (Soft Agar). […] Bars, SE (n=3). *p<0.001 vs. vehicle. **p<0.02 vs. vehicle. ***p<0.05 vs. vehicle. T=tocopherol, T3=tocotrienol.
MiaPaCa2 cells (3×10^3) were cultured as described in the Examples above, in 96-well plates and treated with 50 μM of different tocopherol or tocotrienol.

Test [2] has as its system MIA PaCa-2 cells (pZWL vector and myrAKT). The test can be described thus: Cell death (trypan blue) in vector and myrAKT MIA PaCa-2 cells. The following applies: MIA PaCa-2 vector vs myr-AKT cells, 24 hours, compared to vehicle. The method, then:
FIG. 12 is a graph wherein MIA PaCa-2 cells (pZWL vector and myrAKT) were treated without serum vehicle or δ-tocotrienol (50 μM) for 24 hours, with and without a 10-hour caspase 8/3 inhibitor pretreatment. Cells were also treated with TRAIL as a positive control. Cells were then harvested, fixed, permeablized and stained with trypan blue.
To further identify the role of AKT in the apoptotic pathways noted in Example 2, functional overexpression of CA-AKT was analyzed in Mia-PaCa2 pancreatic cancer cells. MIA PaCa-2 cells were treated with pZWL vector and myrAKT, a retroviral vector encoding myristoylated AKT, with or without serum, vehicle, or δ-tocotrienol (40 or 50 μM) for 24 hours, with and without a 10-hour caspase 8 inhibitor pretreatment. Cells were also treated with TRAIL as a positive control. Cells were then harvested, fixed, permeablized and stained with trypan blue.
The myristoylated AKT rescued δ-tocotrienol suppression PI3K-AKT signaling. The MiaPaCa-2 parental cell lines were stably transfected using constitutively active myristoylated AKT in a pWZL vector construct to generate MiaPaCa-2AKT cells. […] Lastly, pretreatment with caspase 3, 8 and 9 inhibitors rescued tocotrienol induced cell death.

With `O=c1[nH]cc(F)c(=O)[nH]1` [5-FU, fluorouracil], in the test with MIA PaCa2 cells, the “concentration at which the effect became significant vs vehicle” value is 50 µM. Moreover, in the test with MIA PaCa-2 cells, the “cell death (Trypan Blue)” value is given as “increased cell death”.
Regarding `Cc1cc(O)cc2c1O[C@](C)(CCC[C@H](C)CCC[C@H](C)CCCC(C)C)CC2` [δ-tocopherol], the “malignant transformation (Soft Agar)” value in test [1] is on record as “no effect”.

B1: TRAIL: positive control for cell death (protein, UniProt P50591 1-281, looked up)
Tumor necrosis factor ligand …: MAMMEVQGGPSLGQTCVLIVIFTVLLQSLCVAVTYVYFTNELKQMQDKYSKSGIACFLKEDDSYWDPNDEESMNSPCWQVKWQLRQLVRKMILRTSEETISTVQEKQQNISPLVRERGPQRVAAHITGTRGRSNTLSSPNSKNEKALGRKINSWESSRSGHSFLSNLHLRNGELVIHEKGFYYIYSQTYFRFQEEIKENTKNDKQMVQYIYKYTSYPDPILLMKSARNSCWSKDAEYGLYSIYQGGIFELKENDRIFVSVTNEHLIDMDHEASFFGAFLVG
Take B1: the cell death result in test [2] is given as “comparable to vehicle”.
